IC50 data for 21 compounds are collected here from patent US8993586B2, “N1/N2-lactam acetyl-CoA carboxylase inhibitors” (Pfizer Inc., priority 2010, dated 2015).

The target in assay [1] is recombinant human ACC1 (rhACC1) (Homo sapiens (Human), UniProt Q13085). The experiment in a line: recombinant hACC1 Transcreener ADP detection FP assay. In kind it is biochemical. The note with it: 50 μM ATP, 120 min at 25° C. As to the method:
(§1) For example direct inhibition of ACC activity, for the compound of Formula (I) was determined using preparations of recombinant human ACC1 (rhACC1) and recombinant human ACC2 (rhACC2).
[1] Preparation of rhACC1. Two liters of SF9 cells, infected with recombinant baculovirus containing full length human ACC1 cDNA, were suspended in ice-cold lysis buffer (25 mM Tris, pH 7.5; 150 mM NaCl; 10% glycerol; 5 mM imidazole (EMD Bioscience; Gibbstown, N.J.); 2 mM TCEP (BioVectra; Charlottetown, Canada); Benzonase nuclease (10000 U/100 g cell paste; Novagen; Madison, Wis.); EDTA-free protease inhibitor cocktail (1 tab/50 mL; Roche Diagnostics; Mannheim, Germany). Cells were lysed by 3 cycles of freeze-thaw and centrifuged at 40,000×g for 40 minutes (4° C.). Supernatant was directly loaded onto a HisTrap FF crude column (GE Healthcare; Piscataway, N.J.) and eluted with an imidazole gradient up to 0.5 M over 20 column volumes (CV). ACC1-containing fractions were pooled and diluted 1:5 with 25 mM Tris, pH 7.5, 2 mM TCEP, 10% glycerol and direct loaded onto a CaptoQ (GE Healthcare) column and eluted with an NaCl gradient up to 1 M over 20 CV's. Phosphate groups were removed from purified ACC1 by incubation with lambda phosphatase (100 U/10 μM target protein; New England Biolabs; Beverly, Mass.) for 14 hours at 4° C.; okadaic acid was added (1 μM final concentration; Roche Diagnostics) to inhibit the phosphatase. Purified ACC1 was exchanged into 25 mM Tris, pH 7.5, 2 mM TCEP, 10% glycerol, 0.5 M NaCl by 6 hour dialysis at 4° C. Aliquots were prepared and frozen at −80° C.
[2] Measurement of rhACC1 inhibition. hACC1 was assayed in a Costar #3676 (Costar, Cambridge, Mass.) 384-well plate using the Transcreener ADP detection FP assay kit (Bellbrook Labs, Madison, Wis.) using the manufacturer's recommended conditions for a 50 μM ATP reaction. The final conditions for the assay were 50 mM HEPES, pH 7.2, 10 mM MgCl2, 7.5 mM tripotassium citrate, 2 mM DTT, 0.1 mg/mL BSA, 30 μM acetyl-CoA, 50 μM ATP, and 10 mM KHCO3 Typically, a 10 μl reaction was run for 120 min at 25° C., and 10 μl of Transcreener stop and detect buffer was added and the combination incubated at room temp for an additional 1 hour. The data was acquired on a Envision Fluorescence reader (PerkinElmer) using a 620 excitation Cy5 FP general dual mirror, 620 excitation Cy5 FP filter, 688 emission (S) and a 688 (P) emission filter.

In assay [2] the target is recombinant human ACC2 (rhACC2) (Homo sapiens (Human), UniProt O00763). The experiment in a line: recombinant hACC2 Transcreener ADP detection FP assay. In kind it is biochemical. The note with it: 50 uM ATP, 50 min at 25° C. As to the method:
as §1
[3] Preparation of rhACC2. Human ACC2 inhibition was measured using purified recombinant human ACC2 (hrACC2). Briefly, a full length Cytomax clone of ACC2 was purchased from Cambridge Bioscience Limited and was sequenced and subcloned into PCDNA5 FRT TO-TOPO (Invitrogen, Carlsbad, Calif.). The ACC2 was expressed in CHO cells by tetracycline induction and harvested in 5 liters of DMEM/F12 with glutamine, biotin, hygromycin and blasticidin with 1 μg/mL tetracycline (Invitrogen, Carlsbad, Calif.). The conditioned medium containing ACC2 was then applied to a Softlink Soft Release Avidin column (Promega, Madison, Wis.) and eluted with 5 mM biotin. […] The purified ACC2 was dialyzed in 50 mM Tris, 200 mM NaCl, 4 mM DTT, 2 mM EDTA, and 5% glycerol. […] For measurement of ACC2 activity and assessment of ACC2 inhibition, test compounds were dissolved in DMSO and added to the rhACC2 enzyme as a 5× stock with a final DMSO concentration of 1%.
[4] Measurement of human ACC2 inhibition. hACC2 was assayed in a Costar #3676 (Costar, Cambridge, Mass.) 384-well plate using the Transcreener ADP detection FP assay kit (Bellbrook Labs, Madison, Wis.) using the manufacturer's recommended conditions for a 50 uM ATP reaction. The final conditions for the assay were 50 mM HEPES, pH 7.2, 5 mM MgCl2, 5 mM tripotassium citrate, 2 mM DTT, 0.1 mg/mL BSA, 30 μM acetyl-CoA, 50 μM ATP, and 8 mM KHCO3 Typically, a 10 μl reaction was run for 50 min at 25° C., and 10 μl of Transcreener stop and detect buffer was added and the combination incubated at room temp for an additional 1 hour. The data was acquired on an Envision Fluorescence reader (PerkinElmer) using a 620 excitation Cy5 FP general dual mirror, 620 excitation Cy5 FP filter, 688 emission (S) and a 688 (P) emission filter.

Sequence of recombinant human ACC2 (rhACC2) (O00763 whole entry V2141I): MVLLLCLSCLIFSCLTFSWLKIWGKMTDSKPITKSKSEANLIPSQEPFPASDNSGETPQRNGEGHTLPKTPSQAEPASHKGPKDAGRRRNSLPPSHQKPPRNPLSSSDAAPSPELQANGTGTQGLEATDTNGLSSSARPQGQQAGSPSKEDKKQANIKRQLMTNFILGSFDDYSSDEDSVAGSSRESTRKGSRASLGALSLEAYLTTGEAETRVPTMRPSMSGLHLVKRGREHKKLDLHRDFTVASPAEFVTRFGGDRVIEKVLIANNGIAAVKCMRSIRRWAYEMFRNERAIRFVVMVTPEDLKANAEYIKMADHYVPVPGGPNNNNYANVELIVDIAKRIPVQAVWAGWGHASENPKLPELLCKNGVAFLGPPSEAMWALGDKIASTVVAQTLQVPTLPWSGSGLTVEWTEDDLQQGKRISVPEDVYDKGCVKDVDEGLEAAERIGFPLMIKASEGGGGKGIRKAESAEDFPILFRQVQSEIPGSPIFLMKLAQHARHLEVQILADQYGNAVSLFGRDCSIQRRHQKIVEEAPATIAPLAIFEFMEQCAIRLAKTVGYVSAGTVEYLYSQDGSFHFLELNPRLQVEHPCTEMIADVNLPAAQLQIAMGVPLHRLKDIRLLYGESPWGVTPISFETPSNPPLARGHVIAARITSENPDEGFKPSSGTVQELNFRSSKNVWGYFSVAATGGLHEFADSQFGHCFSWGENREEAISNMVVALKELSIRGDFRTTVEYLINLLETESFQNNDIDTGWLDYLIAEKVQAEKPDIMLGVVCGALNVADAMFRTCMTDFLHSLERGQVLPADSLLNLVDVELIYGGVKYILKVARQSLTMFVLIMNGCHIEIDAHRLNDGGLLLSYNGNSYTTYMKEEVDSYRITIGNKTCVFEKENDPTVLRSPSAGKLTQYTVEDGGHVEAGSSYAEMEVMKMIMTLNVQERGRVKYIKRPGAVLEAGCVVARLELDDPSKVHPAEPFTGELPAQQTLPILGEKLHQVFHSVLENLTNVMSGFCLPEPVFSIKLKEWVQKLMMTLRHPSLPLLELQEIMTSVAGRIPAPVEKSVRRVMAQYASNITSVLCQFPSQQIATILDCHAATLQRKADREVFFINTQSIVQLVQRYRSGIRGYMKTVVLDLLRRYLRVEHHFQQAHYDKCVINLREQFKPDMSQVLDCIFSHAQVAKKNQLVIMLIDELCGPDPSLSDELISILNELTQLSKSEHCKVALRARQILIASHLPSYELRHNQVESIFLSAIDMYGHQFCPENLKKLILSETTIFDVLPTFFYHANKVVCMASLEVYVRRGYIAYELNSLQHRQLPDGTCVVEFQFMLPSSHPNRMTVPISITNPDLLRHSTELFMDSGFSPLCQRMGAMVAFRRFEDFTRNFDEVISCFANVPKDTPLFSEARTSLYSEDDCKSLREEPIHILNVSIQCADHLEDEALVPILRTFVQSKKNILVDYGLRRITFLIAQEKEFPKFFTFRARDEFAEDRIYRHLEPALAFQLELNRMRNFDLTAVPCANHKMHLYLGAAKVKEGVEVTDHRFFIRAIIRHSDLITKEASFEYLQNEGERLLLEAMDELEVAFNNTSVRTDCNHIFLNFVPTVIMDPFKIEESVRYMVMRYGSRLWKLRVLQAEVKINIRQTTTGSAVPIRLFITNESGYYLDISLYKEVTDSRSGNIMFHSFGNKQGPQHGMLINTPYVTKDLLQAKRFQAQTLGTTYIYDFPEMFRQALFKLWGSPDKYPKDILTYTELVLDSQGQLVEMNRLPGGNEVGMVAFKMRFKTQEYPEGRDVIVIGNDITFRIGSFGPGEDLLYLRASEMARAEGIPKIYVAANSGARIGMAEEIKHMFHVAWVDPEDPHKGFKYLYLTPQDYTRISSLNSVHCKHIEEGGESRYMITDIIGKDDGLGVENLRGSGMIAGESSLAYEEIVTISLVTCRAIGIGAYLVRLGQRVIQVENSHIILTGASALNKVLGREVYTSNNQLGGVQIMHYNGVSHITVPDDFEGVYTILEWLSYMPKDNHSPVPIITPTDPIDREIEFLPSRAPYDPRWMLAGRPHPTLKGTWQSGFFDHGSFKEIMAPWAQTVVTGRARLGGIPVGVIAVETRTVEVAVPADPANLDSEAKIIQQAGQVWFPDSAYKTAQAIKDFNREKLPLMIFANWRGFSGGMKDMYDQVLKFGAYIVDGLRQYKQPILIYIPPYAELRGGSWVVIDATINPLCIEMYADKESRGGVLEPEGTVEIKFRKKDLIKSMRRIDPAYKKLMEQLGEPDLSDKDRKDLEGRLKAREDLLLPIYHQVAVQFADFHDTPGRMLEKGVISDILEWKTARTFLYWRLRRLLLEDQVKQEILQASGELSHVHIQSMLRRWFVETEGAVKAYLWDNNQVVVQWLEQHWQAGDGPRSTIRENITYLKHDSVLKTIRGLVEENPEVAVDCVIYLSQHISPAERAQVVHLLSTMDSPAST

The IC50 is the concentration that inhibits the measured activity by half. `Cc1nc2cc(C(=O)N3CCC4(CC3)Cc3cn(C(C)C)nc3C(=O)N4)ccc2[nH]1` [Example 40]: the IC50 in assay [1] was determined as 656 nM; in assay [2], 177 nM.

As to `CC(C)n1ncc2c1C(=O)NC1(CCN(C(=O)c3ccc4cnccc4c3)CC1)C2` [Example 22], the IC50 worked out at 1250 nM in assay [1] and 843 nM in assay [2].

In the case of `COc1cc(C(=O)N2CCC3(CC2)Cc2cn(C(C)(C)C)nc2C(=O)N3)cc2[nH]ncc12` [Example 66], the figures for the IC50 in assay [1] and in assay [2] were 17 nM and 2.4 nM, respectively.

Consider `CC(C)n1ncc2c1C(=O)NC1(CCN(C(=O)c3ccc4[nH]nc(C#N)c4c3)CC1)C2` [Example 25], for which the results for the IC50 in assay [1] and in assay [2] were 259 nM and 137 nM, respectively.

In the case of `CC(C)n1ncc2c1C(=O)NC1(CCN(C(=O)c3ccc4ncccc4c3)CC1)C2` [Example 21], the IC50 in assay [1] came out at 619 nM; in assay [2], 341 nM.

On to `CC(C)n1ncc2c1C(=O)NC1(CCN(C(=O)c3cnc4[nH]cc(Cl)c4c3)CC1)C2` [Example 31], for which the figures for the IC50 in assay [1] and in assay [2] were 179 nM and 96 nM, respectively.

Regarding `CC(C)(C)n1cc2c(n1)C(=O)NC1(CCN(C(=O)c3ccc4c(C(F)(F)F)n[nH]c4c3)CC1)C2` [Example 83], the results for the IC50 in assay [1] and in assay [2] were 163 nM and 19 nM, respectively.

As to `CC(C)(C)n1cc2c(n1)C(=O)NC1(CCN(C(=O)c3ccc4ccc(NCC(F)(F)F)nc4c3)CC1)C2` [Example 124], the IC50 stood at 6.5 nM in assay [1] and 1.72 nM in assay [2].

On to `CC(C)Nc1nccc2ccc(C(=O)N3CCC4(CC3)Cc3cn(C(C)(C)C)nc3C(=O)N4)cc12` [Example 116], for which the IC50 in assay [1] turned out to be 20 nM; in assay [2], 4.7 nM.

Consider `CC(C)(C)n1cc2c(n1)C(=O)NC1(CCN(C(=O)c3ccc4cc(N)ncc4c3)CC1)C2` [Example 94], for which the figures for the IC50 in assay [1] and in assay [2] were 130 nM and 23 nM, respectively.

With `COc1cc2ccc(C(=O)N3CCC4(CC3)Cc3cn(C(C)(C)C)nc3C(=O)N4)cc2cn1` [Example 90], the IC50 amounted to 209 nM in assay [1] and 31 nM in assay [2].

With `CCc1n[nH]c2ccc(C(=O)N3CCC4(CC3)Cc3cnn(C(C)C)c3C(=O)N4)cc12` [Example 15], the IC50 in assay [1] was 251 nM; in assay [2], 143 nM.

Take `CC(C)(C)n1cc2c(n1)C(=O)NC1(CCN(C(=O)c3ccc4ccc(NC5CC5)nc4c3)CC1)C2` [Example 106]: the IC50 in assay [1] stood at 7.5 nM; in assay [2] it was 2.6 nM.

Turning to `CC(C)(C)n1cc2c(n1)C(=O)NC1(CCN(C(=O)c3ccc4c(N)nccc4c3)CC1)C2` [Example 101, 1-(1-aminoisoquinoline-6-carbonyl)-2′-tert-butyl-4′,6′-dihydrospiro[piperidine-4,5′-pyrazolo[3,4-c]pyridin]-7′(2′H)-one], the IC50 worked out at 160 nM in assay [1] and 26 nM in assay [2].

With `CCNc1ccc2ccc(C(=O)N3CCC4(CC3)Cc3cn(C(C)(C)C)nc3C(=O)N4)cc2n1` [Example 112], the figures for the IC50 in assay [1] and in assay [2] were 8.9 nM and 1.8 nM, respectively.

As for `Cc1cc(C(=O)N2CCC3(CC2)Cc2cn(C(C)(C)C)nc2C(=O)N3)cc2c(Cl)n[nH]c12` [Example 62], the figures for the IC50 in assay [1] and in assay [2] were 8.4 nM and 2.1 nM, respectively.

With `CC(C)n1ncc2c1C(=O)NC1(CCN(C(=O)c3cc(Cl)c4[nH]ncc4c3)CC1)C2` [Example 11], the IC50 in assay [1] was found to be 88 nM; in assay [2], 72 nM.

With `CC(C)Nc1ccc2ccc(C(=O)N3CCC4(CC3)Cc3cn(C(C)(C)C)nc3C(=O)N4)cc2n1` [Example 107], the IC50 in assay [1] worked out at 6.1 nM; in assay [2] it was 2.2 nM.

Take `COc1ccc2ncc(C(=O)N3CCC4(CC3)Cc3cnn(C(C)C)c3C(=O)N4)cc2c1` [Example 26]: the IC50 in assay [1] amounted to 121 nM; in assay [2], 60 nM.

`CCN(C)c1nccc2ccc(C(=O)N3CCC4(CC3)Cc3cn(C(C)(C)C)nc3C(=O)N4)cc12` [Example 117]: the IC50 in assay [1] was found to be 332 nM; in assay [2] it was 54 nM.

For the compound `CC(C)(C)n1cc2c(n1)C(=O)NC1(CCN(C(=O)c3cnc4[nH]cc(Cl)c4c3)CC1)C2` [Example 96], the IC50 stood at 62 nM in assay [1] and 7.1 nM in assay [2].
